ChEMBL document CHEMBL1149496, “Dissecting the determinants of cyclin-dependent kinase 2 and cyclin-dependent kinase 4 inhibitor selectivity” (J Med Chem, 2006)

Molecular target: Cyclin-dependent kinase 4 (Homo sapiens, UniProt P11802)
Experiment: Inhibition of CDK4

Sequence of Cyclin-dependent kinase 4 (P11802 whole entry): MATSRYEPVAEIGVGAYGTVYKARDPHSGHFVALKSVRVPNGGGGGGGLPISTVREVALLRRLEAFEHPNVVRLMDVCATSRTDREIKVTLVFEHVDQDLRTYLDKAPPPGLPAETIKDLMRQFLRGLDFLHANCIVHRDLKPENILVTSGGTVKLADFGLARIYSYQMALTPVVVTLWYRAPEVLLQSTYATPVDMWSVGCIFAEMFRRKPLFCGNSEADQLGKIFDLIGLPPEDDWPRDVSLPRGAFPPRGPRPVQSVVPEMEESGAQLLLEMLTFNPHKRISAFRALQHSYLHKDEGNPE

SMILES: Cc1ccc(Cl)c(N(CC#N)c2cc(Nc3ccc(OC[C@@H](O)CN(C)C)cc3)ncn2)c1
- IC50: 47 nM
